Laboratory results as given in ChEMBL document CHEMBL1201862, “PubChem BioAssay data set” (2004).
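Cells were grown in 96-well plates and exposed to each compound for 48 hours at five concentrations; endpoints were interpolated linearly between bracketing concentrations, or set to the highest concentration if not reached. GI50 = concentration required for 50% inhibition of growth.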 Calls of active or inactive are those of the source. Cut-off read from the data, not from the text of the source: active = GI50 up to about 1.1 µM and inactive = higher.

Assays:
Test in all cases: NCI anticancer screen, dose series, 48 h
RPMI-8226 = tested on: RPMI-8226
HCC 2998 = tested on: HCC 2998
HL-60 = tested on: HL-60
M14 = tested on: M14
IGROV-1 = tested on: IGROV-1
MDA-N = tested on: MDA-N
CCRF-CEM = tested on: CCRF-CEM
LOX IMVI = tested on: LOX IMVI
A498 = tested on: A498
NCI-H23 = tested on: NCI-H23
NCI-H522 = tested on: NCI-H522
HOP-92 = tested on: HOP-92
HOP-62 = tested on: HOP-62
SF-268 = tested on: SF-268
UO-31 = tested on: UO-31
NCI-H226 = tested on: NCI-H226
SK-MEL-28 = tested on: SK-MEL-28
NCI/ADR-RES = tested on: NCI/ADR-RES
SF-295 = tested on: SF-295
SNB-19 = tested on: SNB-19

Compound | GI50 (RPMI-8226) | GI50 (HCC 2998) | GI50 (HL-60) | GI50 (M14) | GI50 (IGROV-1) | GI50 (MDA-N) | GI50 (CCRF-CEM) | GI50 (LOX IMVI) | GI50 (A498) | GI50 (NCI-H23) | GI50 (NCI-H522) | GI50 (HOP-92) | GI50 (HOP-62) | GI50 (SF-268) | GI50 (UO-31) | GI50 (NCI-H226) | GI50 (SK-MEL-28) | GI50 (NCI/ADR-RES) | GI50 (SF-295) | GI50 (SNB-19)
O=S(=O)(Nc1ccccc1S(=O)(=O)c1ccccc1)c1ccccc1 | 32.3 µM (inactive) | 44.6 µM (inactive) | 30.8 µM (inactive) | > 100 µM (inactive) | > 100 µM (inactive) | > 100 µM (inactive) | 42.7 µM (inactive) | > 100 µM (inactive) | 91.8 µM (inactive) | 46.7 µM (inactive) | 41.2 µM (inactive) | 76.9 µM (inactive) | > 100 µM (inactive) | 91 µM (inactive) | > 100 µM (inactive) | > 100 µM (inactive) | > 100 µM (inactive) | 57.1 µM (inactive) | 94.4 µM (inactive) | > 100 µM (inactive)
CC[C@@]1(O)C(=O)OCc2c1cc1n(c2=O)Cc2c-1nc1ccccc1c2/C=N\NC(=O)C(N)Cc1ccc(O)cc1 (stereo not given in full) | 0.867 µM (active) | 4.03 µM (inactive) | 0.146 µM (active) | 0.587 µM (active) | 2.52 µM (inactive) | 3.35 µM (inactive) | < 0.0236 µM (active) | 0.189 µM (active) | 0.813 µM (active) | 0.233 µM (active) | 0.998 µM (active) | 1.27 µM (inactive) | 0.248 µM (active) | 0.202 µM (active) | 0.619 µM (active) | 0.15 µM (active) | 6.24 µM (inactive) | 1.33 µM (inactive) | 0.46 µM (active) | 0.267 µM (active)
CCOC(=O)c1[nH]cc(C)c1-c1c[nH]c2ccccc12 | 7.35 µM (inactive) | 19.9 µM (inactive) | 6.44 µM (inactive) | 24.9 µM (inactive) | 33.2 µM (inactive) | 24.9 µM (inactive) | 18.9 µM (inactive) | 18 µM (inactive) | 59.6 µM (inactive) | 27.2 µM (inactive) | 24.6 µM (inactive) | 22.8 µM (inactive) | 35.3 µM (inactive) | 23.7 µM (inactive) | 19.3 µM (inactive) | 19.9 µM (inactive) | 39.4 µM (inactive) | 21.4 µM (inactive) | 29 µM (inactive) | 24.9 µM (inactive)
